# Measured values reported in patent US6894049B1, “Platinum complexes as antitumor agents” (AnorMED, Inc., priority 2000, dated 2005).
# Like-named read-outs stand apart in the source and are kept apart here.
# Columns and labels:
# 41MR = assay: Cell proliferation, cisplatin-resistant human cancer cell line 41MR; type: cell-based; conditions: for resistance factor: 41MR/41M, in brackets; for IC50: 41MR, read-out: concentration necessary to achieve a 50% decrease in cell proliferation
# Experimental: (§1) The complexes of the invention were tested against human cancer cell lines grown in cell culture according to established testing procedures (described by Holford, et al., British J. Cancer 1998 77(3) 366-373). The results are given in concentrations (μM) necessary to achieve a 50% decrease in cell proliferation, with resistance factors in brackets for the cisplatin-resistant cell lines.
# 41M = assay: Cell proliferation, human cancer cell line 41M; type: cell-based; conditions: read-out: concentration necessary to achieve a 50% decrease in cell proliferation
# Experimental: as §1
# CH1R = assay: Cell proliferation, cisplatin-resistant human cancer cell line CH1R; type: cell-based; conditions: for resistance factor: CH1R/CH1, in brackets; for IC50: CH1R, read-out: concentration necessary to achieve a 50% decrease in cell proliferation
# Experimental: as §1
# A2780R = assay: Cell proliferation, cisplatin-resistant human cancer cell line A2780R; type: cell-based; conditions: for resistance factor: A2780R/A2780, in brackets; for IC50: A2780R, read-out: concentration necessary to achieve a 50% decrease in cell proliferation
# Experimental: as §1
# CH1 = assay: Cell proliferation, human cancer cell line CH1; type: cell-based; conditions: read-out: concentration necessary to achieve a 50% decrease in cell proliferation
# Experimental: as §1
# A2780 = assay: Cell proliferation, human cancer cell line A2780; type: cell-based; conditions: read-out: concentration necessary to achieve a 50% decrease in cell proliferation
# Experimental: as §1
# [1] = Maximum tolerated dose in mice; type: in vivo
# [2] = Aqueous solubility at ambient conditions; type: physicochemical
# [3] = background statement; cited from earlier work
Molecule,resistance factor (41MR),IC50 (41MR),IC50 (41M),resistance factor (CH1R),IC50 (CH1R),resistance factor (A2780R),IC50 (A2780R),IC50 (CH1),IC50 (A2780),"decrease in resistance factor (A2780R; A2780/A2780R, compared to cis-ammine(2-methylpyridine)dichloroplatinum(II))",maximum tolerated dose (MTD) [1],Aqueous Solubility [2],Aqueous Solubility [3]
"Cc1cc(C)[n+]([Pt-2]([NH3+])([Cl])[Cl])[nH]1 [Example 1, (SP-4-3)-amminedichloro(3.5-dimethylpyrazole)platinum(II)]",1.3,4.5 µM,3.5 µM,1.9,3.8 µM,3.4,9.2 µM,2.05 µM,2.7 µM,,,,
"Cc1cc(C)[n+]([Pt-2]([NH3+])([Cl])[Cl])n1C [Example 2, (SP-4-3)-amminedichloro(1,3,5-trimethylpyrazole)platinum(II)]",1.8,15.5 µM,8.5 µM,1.2,11 µM,1.8,15.5 µM,9.2 µM,8.5 µM,2.6 fold,greater than 50 mg/Kg,,
Cn1cc[n+]([Pt-2]([NH3+])([Cl])[Cl])c1 [Example 3],1.7,12.5 µM,7.4 µM,1.4,10.5 µM,2.6,16.5 µM,7.6 µM,6.4 µM,,,,
Cc1cc(C)[n+]([Pt-2]([NH3+])([Cl])[Cl])o1 [Example 4],,6 µM,8 µM,2.5,8 µM,6.4,23.5 µM,3.2 µM,3.7 µM,,,1270 µg/mL,
Cc1c[n+]([Pt-2]([NH3+])([Cl])[Cl])c(C)cn1 [Example 5],,9 µM,11.5 µM,1.6,8 µM,5.8,35 µM,5 µM,6 µM,,,,
Cc1ncc[n+]([Pt-2]([NH3+])([Cl])[Cl])c1C [Example 6],,6.5 µM,6.6 µM,1.7,5.4 µM,5.1,17.5 µM,3.2 µM,3.4 µM,,,,
Cc1n(C)cc[n+]1[Pt-2]([NH3+])([Cl])[Cl] [Example 7],1.6,15 µM,9.3 µM,1.4,12 µM,2.5,17.5 µM,8.3 µM,7.1 µM,,,,
Cc1[nH]cc[n+]1[Pt-2]([NH3+])([Cl])[Cl] [Example 8],0.8,16.5 µM,21 µM,2.5,12.5 µM,,,5.2 µM,,,,,
Cc1oc(C)[n+]([Pt-2]([NH3+])([Cl])[Cl])c1C [Example 10],,11.5 µM,11.8 µM,1.8,9.4 µM,4.1,40 µM,5.2 µM,9.8 µM,,,,
"Cc1cc(C)[n+]([Pt-2]([NH3+])([OH])([OH])([Cl])[Cl])[nH]1 [Example 11, (OC-6-43)amminedichlorodihydroxo-(3.5-dimethylpyrazole)platinum(IV)]",,8.2 µM,11 µM,2.5,5 µM,5.1,37 µM,2 µM,7.2 µM,,,,
"Cn1cc[n+]([Pt-2]([NH3+])([OH])([OH])([Cl])[Cl])c1 [Example 12, (OC-6-43)-amminedichlorodihydroxo-(1-methylimidazole)platinum(IV)]",1.9,45 µM,23.5 µM,1.9,24.5 µM,4.5,77 µM,13 µM,17 µM,,,,
"CC(=O)[O][Pt-2]([NH3+])([Cl])([Cl])([O]C(C)=O)[n+]1ccnc(C)c1C [Example 14, (OC-6-43)-amminedichlorodiacetato-(2,3-dimethylpyrazine)platinum(IV)]",1.2,36 µM,29 µM,3.2,30 µM,,,9.4 µM,,,,,
Cc1n(C)cc[n+]1[Pt-2]([NH3+])([OH])([OH])([Cl])[Cl] [Example 15],0.9,21 µM,23 µM,1.4,16.5 µM,> 7.4,> 100 µM,12 µM,13.5 µM,,,,
Cc1c[n+]([Pt-2]([NH3+])([OH])([OH])([Cl])[Cl])c(C)[nH]1 [Example 16],1.5,28 µM,19 µM,2.1,21 µM,> 8,> 100 µM,10 µM,12.5 µM,,,,
"CC(=O)[O][Pt]([NH2])([Cl])([Cl])([NH]C1CCCCC1)[O]C(C)=O [bis-acetato-ammine(cyclohexylamine)dichloroplatinum(IV), reference compound]",1.2,0.6 µM,0.5 µM,4,0.4 µM,4.6,1.84 µM,,0.4 µM,,,<1000 µg/mL,
"CCCC(=O)[O][Pt]([NH2])([Cl])([Cl])([NH]C1CCCCC1)[O]C(=O)CCC [bis-butyrato-ammine(cyclohexylamine)dichloroplatinum(IV), reference compound]",0.67,0.048 µM,0.072 µM,3.7,0.024 µM,,,0.0066 µM,,,,,
"[NH2][Pt]1([NH2])[O]C(=O)C2(CCC2)C(=O)[O]1 [carboplatin, diammine[1,1-cyclobutanedicarboxylato (2-)]-O,O′-platinum(II), reference compound]",2.7,8.8 µM,3.3 µM,4.5,6 µM,,25.9 µM,1.3 µM,1.8 µM,,,,14000 µg/mL
"N.N.[Cl][Pt][Cl] [cisplatin, [PtCl2(NH3)2], reference compound]",4.6,1.2 µM,0.26 µM,6.5,0.71 µM,,5.2 µM,0.11 µM,0.33 µM,,11.3 mg/kg,,
cis-ammine(2-methylpyridine)dichloroplatinum(II) [reference compound],1.1,6 µM,5.6 µM,1,2.1 µM,4.8,12 µM,2.2 µM,2.5 µM,,,,
